Results as given in PubChem BioAssay AID1259407 (Chemical Carcinogenesis Research Information System (CCRIS), 2018).
The source made the active and inactive calls. The rule behind the calls is not given here.

System: CCRIS mutagenicity, Ames/micronucleus/aberration tests
Test: CCRIS mutagenicity studies

In the case of CC[n+]1c(-c2ccccc2)c2cc(N)ccc2c2ccc(N)cc21, the mutagenic call (End Point: IN VITRO MICRONUCLEUS, Test System: CHO CELLS, Metabolic Activation: RAT, LIVER, S-9, AROCLOR 1254) is reported as “inactive; negative”, the mutagenic call (Test System: AMES SALMONELLA TYPHIMURIUM, Strain/Indicator: TA97A, Metabolic Activation: NONE, Method: STANDARD PLATE) is reported as “inactive; negative” and the mutagenic call (Test System: AMES SALMONELLA TYPHIMURIUM, Strain/Indicator: TA97A, Metabolic Activation: RAT LIVER S-9, AROCLOR 1254, Method: STANDARD PLATE) is reported as “active; positive”. The mutagenic call (Test System: AMES SALMONELLA TYPHIMURIUM, Strain/Indicator: TA98, Metabolic Activation: NONE, Method: STANDARD PLATE) was “inactive; negative”, the mutagenic call (Test System: AMES SALMONELLA TYPHIMURIUM, Strain/Indicator: TA98, Metabolic Activation: RAT LIVER S-9, AROCLOR 1254, Method: STANDARD PLATE) was “active; positive” and the mutagenic call (Test System: AMES SALMONELLA TYPHIMURIUM, Strain/Indicator: TA98, Metabolic Activation: RAT, LIVER, S-9, AROCLOR 1254, HAMSTER, LIVER, S-9, AROCLOR 1254, Method: STANDARD PLATE) was “active; positive”. The mutagenic call (Test System: AMES SALMONELLA TYPHIMURIUM, Strain/Indicator: TA98, Metabolic Activation: RAT, LIVER, S-9, AROCLOR 1254, Method: STANDARD PLATE) was “active; positive”, the mutagenic call (Test System: AMES SALMONELLA TYPHIMURIUM, Strain/Indicator: TA98, Metabolic Activation: RAT, LIVER, S-9, AROCLOR 1254 OR PHENOBARBITOL, Method: STANDARD PLATE) was “active; positive” and the mutagenic call (Test System: AMES SALMONELLA TYPHIMURIUM, Strain/Indicator: TA100, Metabolic Activation: NONE, Method: STANDARD PLATE) was “inactive; negative”. The mutagenic call (Test System: AMES SALMONELLA TYPHIMURIUM, Strain/Indicator: TA100, Metabolic Activation: RAT LIVER S-9, AROCLOR 1254, Method: STANDARD PLATE) was “inactive; negative”, the mutagenic call (Test System: AMES SALMONELLA TYPHIMURIUM, Strain/Indicator: TA100, Metabolic Activation: RAT, LIVER, S-9, AROCLOR 1254 OR PHENOBARBITOL, Method: STANDARD PLATE) was “inactive; negative” and the mutagenic call (Test System: AMES SALMONELLA TYPHIMURIUM, Strain/Indicator: TA102, Metabolic Activation: NONE, Method: STANDARD PLATE) was “inactive; negative”. The mutagenic call (Test System: AMES SALMONELLA TYPHIMURIUM, Strain/Indicator: TA102, Metabolic Activation: RAT LIVER S-9, AROCLOR 1254, Method: STANDARD PLATE) was “active; positive”, the mutagenic call (Test System: AMES SALMONELLA TYPHIMURIUM, Strain/Indicator: TA1535, Metabolic Activation: NONE, Method: STANDARD PLATE) was “inactive; negative” and the mutagenic call (Test System: AMES SALMONELLA TYPHIMURIUM, Strain/Indicator: TA1535, Metabolic Activation: RAT LIVER S-9, AROCLOR 1254, Method: STANDARD PLATE) was “inactive; negative”. For the same molecule, the mutagenic call (Test System: AMES SALMONELLA TYPHIMURIUM, Strain/Indicator: TA1535, Metabolic Activation: RAT, LIVER, S-9, AROCLOR 1254 OR PHENOBARBITOL, Method: STANDARD PLATE) was “inactive; negative”, the mutagenic call (Test System: AMES SALMONELLA TYPHIMURIUM, Strain/Indicator: TA1537, Metabolic Activation: NONE, Method: STANDARD PLATE) was “inactive; negative” and the mutagenic call (Test System: AMES SALMONELLA TYPHIMURIUM, Strain/Indicator: TA1537, Metabolic Activation: RAT LIVER S-9, AROCLOR 1254, Method: STANDARD PLATE) was “active; positive”. The mutagenic call (Test System: AMES SALMONELLA TYPHIMURIUM, Strain/Indicator: TA1537, Metabolic Activation: RAT, LIVER, S-9, AROCLOR 1254, HAMSTER, LIVER, S-9, AROCLOR 1254 (2.5-20%), Method: STANDARD PLATE) was “active; positive”, the mutagenic call (Test System: AMES SALMONELLA TYPHIMURIUM, Strain/Indicator: TA1537, Metabolic Activation: RAT, LIVER, S-9, AROCLOR 1254, HAMSTER, LIVER, S-9, AROCLOR 1254, Method: STANDARD PLATE) was “active; positive” and the mutagenic call (Test System: AMES SALMONELLA TYPHIMURIUM, Strain/Indicator: TA1537, Metabolic Activation: RAT, LIVER, S-9, AROCLOR 1254 OR PHENOBARBITOL, Method: STANDARD PLATE) was “active; positive”. For the same molecule, the mutagenic call (Test System: AMES SALMONELLA TYPHIMURIUM, Strain/Indicator: TA1538, Metabolic Activation: NONE, Method: STANDARD PLATE) was “inactive; negative”, the mutagenic call (Test System: AMES SALMONELLA TYPHIMURIUM, Strain/Indicator: TA1538, Metabolic Activation: RAT LIVER S-9, AROCLOR 1254, Method: STANDARD PLATE) was “active; positive” and the mutagenic call (Test System: AMES SALMONELLA TYPHIMURIUM, Strain/Indicator: TA1538, Metabolic Activation: RAT, LIVER, S-9, AROCLOR 1254, HAMSTER, LIVER, S-9, AROCLOR 1254, Method: STANDARD PLATE) was “active; positive”. The mutagenic call (Test System: AMES SALMONELLA TYPHIMURIUM, Strain/Indicator: TA1538, Metabolic Activation: RAT, LIVER, S-9, AROCLOR 1254, Method: STANDARD PLATE) was “active; positive”, the mutagenic call (Test System: AMES SALMONELLA TYPHIMURIUM, Strain/Indicator: TA1538, Metabolic Activation: RAT, LIVER, S-9, AROCLOR 1254 OR PHENOBARBITOL, Method: STANDARD PLATE) was “active; positive” and the mutagenic call (Test System: CHINESE HAMSTER OVARY, Strain/Indicator: CHO-K1-BH4 (HGPRT)/6-THIOGUANINE, Metabolic Activation: NONE, Method: SUSPENSION/PLATE) was “inactive; negative”. The mutagenic call (Test System: CHINESE HAMSTER OVARY, Strain/Indicator: CHO-K1-BH4 (HGPRT)/6-THIOGUANINE, Metabolic Activation: S-9, Method: SUSPENSION/PLATE) was “inactive; negative”, the mutagenic call (Test System: CHINESE HAMSTER OVARY, Strain/Indicator: CHO-K1-BH4 (HGPRT), Metabolic Activation: NONE, Method: SUSPENSION/PLATE) was “inactive; negative” and the mutagenic call (Test System: CHINESE HAMSTER OVARY, Strain/Indicator: CHO-K1-BH4 (HGPRT), Metabolic Activation: RAT, LIVER, S-9, AROCLOR, Method: SUSPENSION/PLATE) was “inactive; negative”. The mutagenic call (Test System: CHINESE HAMSTER V-79, Strain/Indicator: V-79/6-THIOGUANINE, Metabolic Activation: NONE, Method: FLASK ASSAY) was “inactive; negative”, the mutagenic call (Test System: E. COLI, Strain/Indicator: WP2, Metabolic Activation: NONE, Method: PREINCUBATION) was “inactive; negative” and the mutagenic call (Test System: E. COLI, Strain/Indicator: WP2 UVRA, Metabolic Activation: NONE, Method: PREINCUBATION) was “inactive; negative”. The mutagenic call (Test System: MOUSE LYMPHOMA, Strain/Indicator: L5178Y (TK+/TK-), Metabolic Activation: RAT, LIVER, S-9, AROCLOR 1254, Method: SUSPENSION/PLATE) was “active; positive. reevaluation of results: positive” and the mutagenic call (Test System: MOUSE LYMPHOMA, Strain/Indicator: L5178Y (TK+/TK-), Metabolic Activation: S-9, Method: SUSPENSION/PLATE) was “inactive; negative”.

In the case of ClC1=C(Cl)C2(Cl)C3C(Cl)C(Cl)CC3C1(Cl)C2(Cl)Cl (stereo not drawn), the mutagenic call (Test System: AMES SALMONELLA TYPHIMURIUM, Strain/Indicator: TA98, Metabolic Activation: HAMSTER, LIVER, S-9, AROCLOR 1254 (5, 10 OR 30%), Method: PREINCUBATION) is reported as “inactive; negative”, the mutagenic call (Test System: AMES SALMONELLA TYPHIMURIUM, Strain/Indicator: TA98, Metabolic Activation: NONE, Method: PREINCUBATION) is reported as “inactive; negative” and the mutagenic call (Test System: AMES SALMONELLA TYPHIMURIUM, Strain/Indicator: TA98, Metabolic Activation: RAT, LIVER, S-9, AROCLOR 1254 (5, 10 OR 30%), Method: PREINCUBATION) is reported as “inactive; negative”. The mutagenic call (Test System: AMES SALMONELLA TYPHIMURIUM, Strain/Indicator: TA100, Metabolic Activation: HAMSTER, LIVER, S-9, AROCLOR 1254 (30%), Method: PREINCUBATION) was “active; positive”, the mutagenic call (Test System: AMES SALMONELLA TYPHIMURIUM, Strain/Indicator: TA100, Metabolic Activation: NONE, Method: DESICCATOR) was “active; positive” and the mutagenic call (Test System: AMES SALMONELLA TYPHIMURIUM, Strain/Indicator: TA100, Metabolic Activation: NONE, Method: PREINCUBATION) was “inactive; negative”. For the same molecule, the mutagenic call (Test System: AMES SALMONELLA TYPHIMURIUM, Strain/Indicator: TA100, Metabolic Activation: RAT, LIVER, S-9, AROCLOR 1254 (30%), Method: PREINCUBATION) was “active; positive” and the mutagenic call (Test System: CHINESE HAMSTER V-79, Strain/Indicator: V-79/OUABAIN, Metabolic Activation: NONE, Method: STANDARD PLATE) was “active; positive”.
